Data from ChEMBL document CHEMBL1157186, “Characterization of chemical components in extracts from Si-wu decoction with proliferation-promoting effects on rat mesenchymal stem cells” (Bioorg Med Chem, 2008).
The source made the active and inactive calls. No cut-off for these calls is given here.

Tested on: Mesenchymal stem cell
Assay: Induction of proliferation of rat mesenchymal stem cells by MTT assay
Type: functional, cell-based

Structure (SMILES)	Activity
CC/C=C1\OC(=O)C2=C1C=CC(O)C2O (configuration not stated)	Active
CCC/C=C1\OC(=O)C2=C1CCC=C2	Active
